Laboratory results taken from US6616919B2, “Dibenzoylmethane sunscreen compositions containing photostabilizing amounts of tri-substituted butane compounds” (Societe l'Oreal S.A., priority 2001, dated 2003).

Key:
Assay type in all cases: physicochemical
[1] = Photostability of butylmethoxydibenzoylmethane in Support 2 formulations containing octyltriazone, xenon lamp exposure, UV spectrometry (Example 2); conditions: Support 2, 0.5% butylmethoxydibenzoylmethane + 1.5% Uvinul T150, X = 0% by weight (no stabilizer)
Method: (§1) The photostability of octyltriazone in the presence of butylmethoxydibenzoylmethane was examined on several formulations in which the amount of 1,1,1-tris(2-methyl-4-hydroxy-5-tert-butylphenyl)butane (X) was varied. The support common to these formulations was as follows: [table] For each formula, 3 test samples and 3 control samples were prepared. 2 mg/cm^2 of formula were deposited by spatula onto polymethyl methacrylate plates. […], to a Sun Test Heraus machine equipped with a xenon lamp and having as UV-A illumination: 3.02×10^−3 W/cm^2, and as UV-B illumination: 2.1×10^−4 W/cm^2, and the control plates were maintained for the same time and at the same temperature (38-40° C.) in darkness. After this time, the screening agents were extracted by immersing each plate in 50 g of ethanol and subjecting them to ultrasound for 15 minutes to ensure good extraction. The solutions obtained were analyzed by UV spectrometry. For each test formula, the amount of residual butylmethoxydibenzoylmethane and the residual amount of octyltriazone after exposure is given as the ratio of each respective optical density (OD) in the exposed sample to the unexposed optical density (OD) corresponding to each filter. The machine was set at the maximum absorption corresponding to each filter: Butylmethoxydibenzoylmethane: λmax=358 nm

[2] = Photostability of butylmethoxydibenzoylmethane in Support 1 formulations, xenon lamp exposure, UV spectrometry (Example 1); conditions: Support 1, 2% butylmethoxydibenzoylmethane, X = 0% by weight (no 1,1,1-tris(2-methyl-4-hydroxy-5-tert-butylphenyl)butane); ratio of exposed to unexposed OD
Method: The photostability of the dibenzoylmethane compound was evaluated on several formulations in which the amount of 1,1,1-tris(2-methyl-4-hydroxy-5-tert-butylphenyl)butane (X) was varied. The support common to these formulations was as follows: [table] For each formula, 3 test samples and 3 control samples were prepared. 2 mg/cm^2 of formula were deposited by spatula onto polymethyl methacrylate plates. […], to a Sun Test Heraus machine equipped with a xenon lamp and having as UV-A illumination: 3.02×10^−3 W/cm^2, and as UV-B illumination: 2.1×10^−4 W/cm^2, and the control plates were maintained for the same time and at the same temperature (38-40° C.) in darkness. After this time, the screening agents were extracted by immersing each plate in 50 g of ethanol and subjecting them to ultrasound for 15 minutes to ensure good extraction. The solutions obtained were analyzed by UV spectrometry. For each test formula, the amount of residual butylmethoxydibenzoylmethane after exposure is given as the ratio of its optical density (OD) in the exposed sample to its unexposed optical density (OD). […]

[3] = Photostability of octyltriazone in the presence of butylmethoxydibenzoylmethane in Support 2 formulations, xenon lamp exposure, UV spectrometry (Example 2); conditions: Support 2, 0.5% butylmethoxydibenzoylmethane + 1.5% Uvinul T150, X = 0% by weight (no stabilizer)
Method: as §1, with “Octyltriazone: λmax=312” for “Butylmethoxydibenzoylmethane: λmax=358”

| SMILES | Residual OD of the dibenzoylmethane at 358 nm after 1 hour of UVA irradiation [1] | Residual OD at 358 nm after 1 hour of UVA irradiation [2] | Residual OD of the triazine at 312 nm after 1 hour of UVA irradiation [3] |
| --- | --- | --- | --- |
| COc1ccc(C(=O)CC(=O)c2ccc(C(C)(C)C)cc2)cc1 [butylmethoxydibenzoylmethane, 4-(tert-butyl)-4′-methoxydibenzoylmethane] | 32 ± 4% | 11 ± 1% |  |
| CCCCC(CC)COC(=O)c1ccc(Nc2nc(Nc3ccc(C(=O)OCC(CC)CCCC)cc3)nc(Nc3ccc(C(=O)OCC(CC)CCCC)cc3)n2)cc1 (stereo not drawn) [octyltriazone, 2,4,6-tris[p-(2′-ethylhexyl-1′-oxycarbonyl)anilino]-1,3,5-triazine] |  |  | 87 ± 13% |
